Experimental data from ChEMBL document CHEMBL5532634, “Oxazolidinone: A promising scaffold for the development of antibacterial drugs” (Eur J Med Chem, 2023).
≈ marks a conversion by molar mass, not a printed value.

Test system: Mycobacterium tuberculosis
Test: Antimycobacterial activity against multi-drug resistant Mycobacterium tuberculosis assessed as reduction in bacterial growth
Format: functional

## CC(=O)NC[C@H]1CN(c2ccc(N3CCSCC3)c(F)c2)C(=O)O1 [SUTEZOLID]
  MIC: 0.2 µg/mL (≈ 0.566 µM)
